Assays:
Human NHE3 [1] = target: T1, Human NHE3 (Homo sapiens, UniProt P48764); experiment: Cell-based NHE3 activity under persistent conditions (60 min incubation, washout), human NHE3; conditions: Table E5; dihydrochloride salt
T1 construct: expressed in transfected cells; host or cells: Opossum kidney (OK) cells (ATCC), electroporation
T1 sequence (P48764 26-834): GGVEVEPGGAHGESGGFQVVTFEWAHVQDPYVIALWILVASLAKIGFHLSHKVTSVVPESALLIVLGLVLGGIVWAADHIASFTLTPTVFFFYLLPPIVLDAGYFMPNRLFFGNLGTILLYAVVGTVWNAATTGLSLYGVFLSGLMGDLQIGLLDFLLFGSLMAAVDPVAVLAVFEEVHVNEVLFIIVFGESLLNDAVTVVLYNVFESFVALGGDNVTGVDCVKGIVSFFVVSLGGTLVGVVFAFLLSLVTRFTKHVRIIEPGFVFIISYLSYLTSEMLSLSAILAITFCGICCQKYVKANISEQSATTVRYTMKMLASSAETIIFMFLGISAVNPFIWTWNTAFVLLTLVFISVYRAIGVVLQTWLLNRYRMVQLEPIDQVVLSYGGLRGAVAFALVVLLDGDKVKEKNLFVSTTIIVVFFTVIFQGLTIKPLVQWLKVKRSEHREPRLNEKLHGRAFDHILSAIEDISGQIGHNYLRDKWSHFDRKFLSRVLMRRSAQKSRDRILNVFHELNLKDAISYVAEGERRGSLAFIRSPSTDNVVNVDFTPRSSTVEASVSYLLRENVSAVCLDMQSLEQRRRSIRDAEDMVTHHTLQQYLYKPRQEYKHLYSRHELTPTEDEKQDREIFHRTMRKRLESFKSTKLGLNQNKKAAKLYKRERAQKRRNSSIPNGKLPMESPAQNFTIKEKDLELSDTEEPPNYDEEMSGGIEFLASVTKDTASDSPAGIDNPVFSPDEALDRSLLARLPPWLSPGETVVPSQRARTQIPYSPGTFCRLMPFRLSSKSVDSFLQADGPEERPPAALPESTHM

Rat NHE3 [2] = target: T2, Rat NHE3 (Rattus norvegicus, UniProt P26433); experiment: Cell-based NHE3 activity under persistent conditions (60 min incubation, washout), rat NHE3; conditions: Table E5; 40 min after compound washout; dihydrochloride salt
T2 construct: expressed in transfected cells; host or cells: Opossum kidney (OK) cells (ATCC), electroporation
T2 sequence (P26433 29-831): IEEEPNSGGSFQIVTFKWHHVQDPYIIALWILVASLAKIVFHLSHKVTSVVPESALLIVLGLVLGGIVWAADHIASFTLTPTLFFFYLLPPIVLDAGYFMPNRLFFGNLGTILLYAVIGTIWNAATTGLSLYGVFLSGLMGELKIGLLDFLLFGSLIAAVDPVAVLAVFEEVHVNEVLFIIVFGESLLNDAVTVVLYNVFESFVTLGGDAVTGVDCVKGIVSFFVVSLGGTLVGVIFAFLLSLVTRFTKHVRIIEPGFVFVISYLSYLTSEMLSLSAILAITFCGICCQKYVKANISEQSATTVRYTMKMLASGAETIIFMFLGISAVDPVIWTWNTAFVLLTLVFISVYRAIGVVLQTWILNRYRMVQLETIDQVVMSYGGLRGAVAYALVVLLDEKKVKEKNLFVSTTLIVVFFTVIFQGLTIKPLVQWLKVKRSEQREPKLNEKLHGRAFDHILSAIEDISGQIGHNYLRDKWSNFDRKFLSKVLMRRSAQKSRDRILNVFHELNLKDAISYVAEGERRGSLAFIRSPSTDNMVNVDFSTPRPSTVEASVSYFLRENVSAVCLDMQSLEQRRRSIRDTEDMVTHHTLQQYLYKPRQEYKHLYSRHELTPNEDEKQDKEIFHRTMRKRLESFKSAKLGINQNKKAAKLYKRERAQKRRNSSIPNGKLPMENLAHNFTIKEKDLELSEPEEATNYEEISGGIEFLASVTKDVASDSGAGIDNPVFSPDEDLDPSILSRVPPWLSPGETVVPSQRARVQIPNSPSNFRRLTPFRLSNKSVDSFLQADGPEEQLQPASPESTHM
Description: Cell-based activity of NHE3 Activity under ‘Persistent’ Conditions. The ability of compounds to inhibit Rat NHE3-mediated Na^+-dependent H^+ antiport after application and washout was measured using a modification of the pH sensitive dye method described above. Opossum kidney (OK) cells were obtained from the ATCC and propagated per their instructions. The rat NHE3 gene was introduced into OK cells via electroporation, and cells were seeded into 96 well plates and grown overnight. Medium was aspirated from the wells, cells were washed twice with NaCl-HEPES buffer (100 mM NaCl, 50 mM HEPES, 10 mM glucose, 5 mM KCl, 2 mM CaCl2, 1 mM MgCl2, pH 7.4), then overlayed with NaCl-HEPES buffer containing 0-30 μM test compound.
After a 60 min incubation, the test drug containing buffer was aspirated from the cells, cells were washed twice with NaCl-HEPES buffer without drug, then incubated for 30 min at room temperature with NH4Cl-HEPES buffer (20 mM NH4Cl, 80 mM NaCl, 50 mM HEPES, 5 mM KCl, 2 mM CaCl2, 1 mM MgCl2, pH 7.4) containing 5 μM BCECF-AM. Cells were washed twice with Ammonium free, Na^+-free HEPES (100 mM choline, 50 mM HEPES, 10 mM glucose, 5 mM KCl, 2 mM CaCl2, 1 mM MgCl2, pH 7.4) and incubated in the same buffer for 10 minutes at room temperature to lower intracellular pH. […]

Human NHE3 [3] = target: T1, Human NHE3; experiment: Cell-based NHE3 activity under prompt conditions (OK cells, BCECF pH recovery), human NHE3; conditions: for Human NHE3 pIC50 Prompt: Table E5, 001 free base, 002-005 dihydrochloride salt; for pIC50 Prompt: Table E6, NHE3 species not stated
Procedure, shortened: (§1)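 Opossum kidney cells transfected with rat or human NHE3 underwent ammonium prepulse (20 mM NH4Cl, pH 7.4, 30 min) then 10 min in Na+-free buffer, room temperature.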

Rat NHE3 [4] = target: T2, Rat NHE3; experiment: Cell-based NHE3 activity under prompt conditions (OK cells, BCECF pH recovery), rat NHE3; conditions: Table E5; 001 free base, 002-005 dihydrochloride salt
Procedure, shortened: as §1

Compound | Human NHE3 pIC50 Persistent (Human NHE3 [1]) | Rat NHE3 pIC50 Persistent (Rat NHE3 [2]) | Human NHE3 pIC50 Prompt (Human NHE3 [3]) | pIC50 Prompt (Human NHE3 [3]) | Rat NHE3 pIC50 Prompt (Rat NHE3 [4])
CN1Cc2c(Cl)cc(Cl)cc2[C@H](c2cccc(S(=O)(=O)NCCOCCOCCNC(=O)NCCCCNC(=O)NCCOCCOCCNS(=O)(=O)c3cccc([C@@H]4CN(C)Cc5c(Cl)cc(Cl)cc54)c3)c2)C1 [Cpd 002] | 8.2 | 8.4 | 8 | 8 | 8
CN1Cc2c(Cl)cc(Cl)cc2[C@@H](c2cccc(S(=O)(=O)NCCOCCOCCNC(=O)NCCCCNC(=O)NCCOCCOCCNS(=O)(=O)c3cccc([C@H]4CN(C)Cc5c(Cl)cc(Cl)cc54)c3)c2)C1 [Cpd 004] | 5.6 | 5.6 | 7.3 | 7.3 | 7.3
